# Test results: patent US10166225B2, “Method for treating osteoporosis” (Exelixis, Inc., priority 2011, dated 2019)
# Key:
# [1] = system: human osteoclasts; assay: Osteoclast activity assay (resorption index CTX/TRACP 5b); type: cell-based; conditions: reference inhibitor, 1_M
# Protocol: In the second part, the culture medium of human osteoclasts was replaced by new medium at day 7, and the formed mature osteoclasts were cultured for an additional 3 days, allowing them to resorb bone. Compound 1 was added into the culture medium at day 7. […] C-terminal cross-linked telopeptides of type I collagen (CTX) were measured in the culture medium collected at day 10 to quantitate bone resorption during days 7-10. […] was measured at day 7 to quantitate osteoclast number before Compound 1 was added. The CTX values were divided by the […] values, resulting as a resorption index that indicates mean osteoclast activity. […] The objective of this study was to investigate the effects of Compound 1 selected by the Sponsor on differentiation and activity of human osteoclasts and mouse osteoblasts in vitro. The effects on osteoclasts were studied using a model where bone marrow-derived human osteoclast precursor cells are cultured on bovine bone slices for 7 days in conditions favouring osteoclast differentiation, and allowed to differentiate into bone-resorbing osteoclasts. After completion of osteoclast differentiation at day 7, the culture medium was removed and new culture medium favouring osteoclast activity was added into the wells. The mature osteoclasts were then cultured for an additional 3 days, allowing them to resorb bone. In the osteoclast differentiation assay, the test compounds and a reference inhibitor osteoprotegerin (OPG) were added into cultures at day 0. In the osteoclast activity assay, the test compounds and a reference inhibitor E64 were added into cultures at day 7. Seven concentrations in 8 replicates were tested in both assays. Tartrate-resistant acid phosphatase 5b activity ([…]) was measured from the culture medium collected at day 7 as an index of the number of osteoclasts formed in each well during the differentiation period. C-terminal cross-linked telopeptides of type I collagen (CTX) was measured from the culture medium collected at day 10 to quantitate bone resorption during days 7-10. A human osteoclast culture system was developed for use in this study where CD34+ osteoclast precursor cells derived from human bone marrow (Poietics® Human Osteoclast Precursors, Lonza, Walkersville, USA) are cultured on bovine bone slices in the presence of appropriate growth factors, including M-CSF and RANK-ligand ([…] et al. 2009). The cells are first allowed to differentiate into mature bone-resorbing osteoclasts, and the formed osteoclasts are then allowed to resorb bone. The test and reference compounds are added into the cell cultures at the beginning of the differentiation and/or the resorption period, and their effects on the differentiation and/or resorbing activity of osteoclasts are determined. Secreted […] is determined from the culture medium after the differentiation period using a commercially available method (BoneTRAPÒ, IDS Ltd, Boldon, UK). Secreted […] describes accurately the number of osteoclasts formed in each well during the differentiation period. CTX is determined from the culture medium after the resorption period using a commercially available method (CrossLapsÒ for cultures, IDS Ltd, Boldon, UK). CTX describes accurately the amount of bone collagen degradation products released into the culture medium in each well during the resorption period. […] In this study, human bone marrow-derived CD34+ stem cells (10000 cells/well) were suspended in culture medium and allowed to attach to bovine bone slices in 96-well tissue culture plates. The culture medium (containing 10% FBS, OCP BulletKit® Lonza, Walkersville, USA) was supplemented with appropriate amounts of important growth factors favoring osteoclast differentiation and activity, including M-CSF (33 ng/ml, OCP BulletKit® Lonza, Walkersville, USA) and RANK-ligand (66 ng/ml, OCP BulletKit® Lonza, Walkersville, USA) in 200 μl of medium. The cells were incubated in a CO2 incubator in humidified atmosphere of 95% air and 5% carbon dioxide at 37° C. […]
# [2] = women, subcutaneous denosumab 60 mg every 6 months; one month after injection; cited from earlier work
# [3] = postmenopausal women, one subcutaneous injection, dose-dependent, for as long as 6 months; cited from earlier work
Compound,effect on osteoclast activity [1],serum CTx levels [2],suppression of urinary NTx [3]
"CC(C)C[C@H](NC(=O)[C@H]1O[C@@H]1C(=O)O)C(=O)NCCCCN=C(N)N [Compound E64, reference compound]",inhibited significantly,–,–
denosumab: subcutaneous denosumab (60 mg) in the FREEDOM osteoporosis trial,–,decreased to levels below the premenopausal reference interval,up to 81%
